Results published in the NIST ThermoML archive (doi:10.1016/j.jct.2018.02.014).
Numbers after ± are expanded uncertainties.

Legend:
[1] = 101.33 kPa, Liquid; for viscosity: Falling or rolling sphere viscometry; for mass density: Vibrating tube method
[2] = activity coefficient (dimensionless); of the first substance listed, at infinite dilution; xn = mol fraction of the nth substance listed; conditions: 101.33 kPa, Liquid, Chromatography, x1 = 0

CC[N+]1(C)CCOCC1.N#CN=C=[N-] [N-ethyl-N-methylmorpholinium dicyanamide]
[1]
Conditions	mass density [kg/m3]	viscosity [mPa·s]
298.15 K	1123.2 ± 4.8	176 ± 8
303.15 K	1120.2 ± 4.8	–
308.15 K	1117.2 ± 4.8	106 ± 4
313.15 K	1114.2 ± 4.8	–
318.15 K	1111.3 ± 4.8	68.3 ± 1.8
323.15 K	1108.4 ± 4.8	–
328.15 K	1105.4 ± 4.7	47.4 ± 1.2
333.15 K	1102.5 ± 4.7	–
338.15 K	1099.7 ± 4.7	33.7 ± 0.8
343.15 K	1096.8 ± 4.7	–
348.15 K	1093.9 ± 4.7	24.8 ± 0.6
353.15 K	1091.1 ± 4.7	–
358.15 K	1088.3 ± 4.6	19.2 ± 0.5
363.15 K	1085.5 ± 4.6	–
368.15 K	1082.7 ± 4.6	15.6 ± 0.4

CCOCC [diethyl ether] + CC[N+]1(C)CCOCC1.N#CN=C=[N-]
[2]
Conditions	activity coefficient
328.15 K	28.5 ± 1.9
338.15 K	29.3 ± 2
348.15 K	30.1 ± 2.1
358.15 K	30.8 ± 2.1
368.15 K	31.6 ± 2.2
